Results: patent US9205086B2, “Cancer therapy using a combination of a Hsp90 inhibitory compounds and a EGFR inhibitor” (Synta Pharmaceuticals Corp., priority 2010, dated 2015)
“Also recorded” adds a separate entry of the source. Where a name gives a salt, the structure may show the parent alone.

Legend:
[1] = biological target: JAK2 mutant JAK2V617F (Homo sapiens, UniProt O60674, V617F); details: cited from earlier work
[2] = test system: human NSCLC cell line HCC827; experiment: SCID mouse xenograft, tumor growth (% T/C); format: in vivo; details: for % T/C value: day 34
Description: FBS was obtained from ATCC and all other reagents were obtained from Invitrogen Corp. (Carlsbad, Calif., USA). Cells that had been cryopreserved in liquid nitrogen were rapidly thawed at 37° C. and transferred to a tissue culture flask containing growth media and then incubated at 37° C. in a 5% CO2 incubator. […] Cultures were passaged by washing with 10 mL of room temperature phosphate buffered saline (PBS) and then disassociating cells by adding 5 mL 1× trypsin-EDTA and incubating at 37° C. until the cells detached from the surface of the flask. To inactivate the trypsin, 5 mL of growth media was added and then the contents of the flask were centrifuged to pellet the cells. The supernatant was aspirated and the cell pellet was resuspended in 10 mL of growth media and the cell number determined using a hemocytometer. Cells were seeded into 175 cm^2 flasks containing 50 mL of growth media and incubated at 37° C. in a 5% CO2 incubator.

[3] = In vivo pharmacokinetic (drug-drug interaction) study in SCID mice, plasma by HPLC; set-up: species or system mouse; details: for AUCINF / T½ / Cmax: plasma; for Cmax: female, CB17/Icr-Prkdc^scid/Crl (SCID), mouse
Excerpt: Six to eight week old, female CB17/Icr-Prkdc^scid/Crl (SCID) mice were obtained from Charles River Laboratories (Wilmington, Mass., USA). Animals were housed 4-5/cage in micro-isolators, with a 12 hr/12 hr light/dark cycle, acclimated for at least 1 week prior to use and fed normal laboratory chow ad libitum.

[4] = Body weight change in nude mouse xenograft study; format: in vivo; details: 200 mg/kg body weight i.p., 5 times per week, 15 doses, tumor-bearing nude mice
Description: The Hsp90 inhibitor, 17-allylamino-17-demethoxygeldanamycin (17-AAG), was employed as a positive control (Albany Molecular Research, Albany, N.Y., USA). […] Animals were intraperitoneally (i.p.) injected with this solution at 10 ml per kg body weight on a schedule of 5 days per week (Monday, Tuesday, Wednesday, Thursday and Friday, with no dosing on Saturday and Sunday) for a total of 15 doses.

[5] = test system: RERF-LC-AI^IVP human lung tumor cells; experiment: Nude mouse xenograft, tumor growth; format: in vivo; details: 5 times per week, 15 doses
Description: The human squamous non-small cell lung cancer cell line, RERF-LC-AI (RCB0444; S. Kyoizumi, et al., Cancer. Res. 45:3274-3281, 1985), was obtained from the Riken Cell Bank (Tsukuba, Ibaraki, Japan). The cell line was cultured in growth media prepared from 50% Dulbecco's Modified Eagle Medium (high glucose), 50% RPMI Media 1640, 10% fetal bovine serum (FBS), 1% 100× L-glutamine, 1% 100× penicillin-streptomycin, 1% 100× sodium pyruvate and 1% 100×MEM non-essential amino acids. FBS was obtained from American Type Culture Collection (Manassas, Va., USA) and all other reagents were obtained from Invitrogen Corp. (Carlsbad, Calif., USA). Approximately 4-5×10(6) cells that had been cryopreserved in liquid nitrogen were rapidly thawed at 37° C. and transferred to a 175 cm^2 tissue culture flask containing 50 ml of growth media and then incubated at 37° C. in a 5% CO2 incubator.
The growth media was replaced every 2-3 days until the flask became 90% confluent, typically in 5-7 days. […] The supernatant was aspirated and the cell pellet was resuspended in 10 ml of growth media and the cell number determined using a hemocytometer. […]
Studies were conducted on animals between 8 and 12 weeks of age at implantation. […] Tumor volumes (V) were calculated by caliper measurement of the width (W), length (L) and thickness (T) of tumors using the following formula: V=0.5236×(L×W×T). […]

[6] = 50 mg/kg Compound 1 plus 25 mg/kg erlotinib HCl, SCID mice
[7] = analyte erlotinib HCl, erlotinib HCl 25 mg/kg + Compound 1 50 mg/kg, single dose
[8] = analyte erlotinib HCl, erlotinib HCl 25 mg/kg alone, single dose
[9] = analyte Compound 1, Compound 1 50 mg/kg + erlotinib HCl 25 mg/kg, single dose
[10] = analyte Compound 1, Compound 1 50 mg/kg alone, single i.v. dose

Sequence of JAK2 mutant JAK2V617F (O60674 whole entry V617F): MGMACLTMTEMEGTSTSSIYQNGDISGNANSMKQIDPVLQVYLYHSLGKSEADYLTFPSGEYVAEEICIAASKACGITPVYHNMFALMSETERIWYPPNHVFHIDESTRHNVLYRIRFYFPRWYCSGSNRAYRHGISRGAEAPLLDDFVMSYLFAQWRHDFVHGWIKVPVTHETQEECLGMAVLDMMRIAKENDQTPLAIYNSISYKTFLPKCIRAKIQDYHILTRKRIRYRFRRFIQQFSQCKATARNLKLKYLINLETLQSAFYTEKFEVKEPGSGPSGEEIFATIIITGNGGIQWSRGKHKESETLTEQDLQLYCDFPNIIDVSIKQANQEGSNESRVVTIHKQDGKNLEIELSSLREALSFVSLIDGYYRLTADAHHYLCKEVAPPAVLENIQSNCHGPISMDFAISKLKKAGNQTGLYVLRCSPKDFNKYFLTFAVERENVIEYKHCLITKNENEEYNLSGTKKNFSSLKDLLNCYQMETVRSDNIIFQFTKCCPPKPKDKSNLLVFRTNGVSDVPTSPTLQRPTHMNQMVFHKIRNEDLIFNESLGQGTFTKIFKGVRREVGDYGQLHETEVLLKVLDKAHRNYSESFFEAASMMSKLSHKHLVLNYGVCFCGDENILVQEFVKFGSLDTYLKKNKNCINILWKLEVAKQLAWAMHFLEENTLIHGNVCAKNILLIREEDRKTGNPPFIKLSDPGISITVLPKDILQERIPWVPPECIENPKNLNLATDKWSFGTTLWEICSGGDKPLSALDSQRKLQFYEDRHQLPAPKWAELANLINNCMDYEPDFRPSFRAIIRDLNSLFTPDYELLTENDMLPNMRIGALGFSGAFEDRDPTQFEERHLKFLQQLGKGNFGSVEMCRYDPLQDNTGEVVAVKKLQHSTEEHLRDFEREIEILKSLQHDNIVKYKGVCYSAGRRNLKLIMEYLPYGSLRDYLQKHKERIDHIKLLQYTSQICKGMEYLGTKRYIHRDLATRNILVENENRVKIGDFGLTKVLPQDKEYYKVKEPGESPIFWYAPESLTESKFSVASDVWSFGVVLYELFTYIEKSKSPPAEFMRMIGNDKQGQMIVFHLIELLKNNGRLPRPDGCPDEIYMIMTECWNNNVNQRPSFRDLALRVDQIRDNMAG

## C#Cc1cccc(Nc2ncnc3cc(OCCOC)c(OCCOC)cc23)c1 [erlotinib HCl]
[1]
  inhibition of JAK2V617F: potently inhibits
[2]; erlotinib HCl 25 mg/kg p.o. once per week
  % T/C value: 23%
[3]; [6]
  effect of Compound 1 on plasma half-life, Cmax and total plasma exposure (AUCinf) of erlotinib HCl: little or no effect
[3]; 50 mg/kg Compound 1 plus 25 mg/kg erlotinib HCl, SCID mice, listed as erlotinib
  effect of Compound 1 on plasma half-life, Cmax and total plasma exposure (AUCinf) of erlotinib HCl: little effect
[3]; [7]
  AUCINF: 39.0 μMXHR
  T½: 2.8 h
[3]; [8]
  AUCINF: 28.1 μMXHR
  T½: 1.7 h
[3]; combination with Compound 1 versus erlotinib HCl alone
  increase in total plasma exposure of erlotinib HCl: 39%
[3]; intravenous, 25 mg/kg, analyte erlotinib HCl, erlotinib HCl 25 mg/kg + Compound 1 50 mg/kg, single dose
  Cmax: 4.94 µM
[3]; intravenous, 25 mg/kg, analyte erlotinib HCl, erlotinib HCl 25 mg/kg alone, single dose
  Cmax: 4.11 µM

## CCc1cc(-c2nnc(S)n2-c2ccc(OC)c3c2ccn3C(C)C)c(O)cc1O [Compound 26, 3-(2,4-DIHYDROXY-5-ETHYL- PHENYL)-4-(1-ISOPROPYL-7- METHOXY-INDOL-4-YL)-5- MERCAPTO[1,2,4]TRIAZOLE]
[4]
  overt toxicity (effect on body weights): not associated with overt toxicity; also recorded: not overtly toxic
[5]; 200 mg/kg body weight i.p.
  growth rate of RERF-LC-AI^IVP human lung tumor cells in nude mice: inhibited tumor growth; also recorded: decreased the growth rate

## CC(C)c1cc(-c2nnc(O)n2-c2ccc3c(ccn3C)c2)c(O)cc1O [Compound 1, 3-(2,4-DIHYDROXY-5- ISOPROPYL-PHENYL)-4-(1- METHYL-INDOL-5-YL)-5- HYDROXY-[1,2,4]TRIAZOLE]
[2]; Compound 1 50 mg/kg i.v. once per week, 3 doses, 50 mg/kg
  HCC827 tumor growth in SCID mice: moderately inhibited HCC827 tumor growth
[2]; Compound 1 50 mg/kg i.v. once per week
  % T/C value: 15%
[3]; [6]
  effect of erlotinib HCl on plasma half-life, Cmax and total plasma exposure (AUCinf) of Compound 1: no significant effect; also recorded: did not affect
[3]; [9]
  AUCINF: 36.0 μMXHR
  T½: 4.5 h
[3]; [10]
  AUCINF: 38.5 μMXHR
  T½: 4.7 h
[3]; iv, 50 mg/kg, analyte Compound 1, Compound 1 50 mg/kg + erlotinib HCl 25 mg/kg, single dose
  Cmax: 93.4 µM
[3]; iv, 50 mg/kg, analyte Compound 1, Compound 1 50 mg/kg alone, single i.v. dose
  Cmax: 118 µM

## C=CCNC1=C2C[C@@H](C)C[C@H](OC)[C@H](O)[C@@H](C)/C=C(\C)[C@H](OC(N)=O)[C@@H](OC)/C=C\C=C(/C)C(=O)NC(=CC1=O)C2=O [Compound 17-AAG, 17-allylamino-17-demethoxygeldanamycin, reference compound]
[5]; 75 mg/kg body weight i.p.
  growth rate of RERF-LC-AI^IVP human lung tumor cells in nude mice: inhibited tumor growth; also recorded: decreased the growth rate
